Experimental data: patent publication US20240217966A1, “PHARMACEUTICAL COMPOSITION CONTAINING GLP-1 RECEPTOR AGONIST HAVING FUSED RING” (Shionogi & Co., Ltd., priority 2021, published 2024)
Like-named read-outs stand apart in the source and are kept apart here.

Target: T1, Human GLP-1 receptor (Homo sapiens, UniProt P43220)
T1 construct: expressed in transfected cells
Assay: Measurement of GLP-1 receptor agonist activity (cAMP assay)
Type: cell-based
Experimental: Test Example 1: (Measurement of GLP-1 Receptor Agonist Activity)
Human GLP-1 receptor stably expressing cells (hGLP-1R/CHO-K1 cells) are cultured in an α-MEM medium (Sigma) containing 10% FBS (Hyclone), 2% GlutaMAX (Gibco), 1% G418 (Nacalai Tesque), and 1% Penicillin-Streptomycin Mixed Solution (Sigma) at 37° C. under 5% CO2 conditions, and recovered by treating a 10 fold diluted 5.0 g/l-trypsin/5.3 mmol/l-EDTA solution (Nacalai Tesque) and cryopreserved.
A DMSO solution containing the compound of the present invention or human GLP-1 (7-36) (Phoenix Pharmaceuticals) is dispensed into a 384-well microplate (Greiner) at 62.5 nL/well, and in addition, 400 μM Forskolin (Nacalai Tesque) is dispensed therein at 7.5 nL/well. Subsequently, the frozen GLP-1 R/CHO-K1 cells are thawed in a thermostatic bath at 37° C., suspended in HBSS buffer (GIBCO) containing 0.1% BSA (Sigma), 20 mM HEPES (GIBCO), 0.1 mM IBMX (Sigma), and 0.2 mM RO20-1724 (Calbiochem) at 2×10^4 cells/mL, and the cell suspension is added at 6 μL/well. The solution was incubated at 37° C. for 1 hour and intracellular cAMP concentration is measured using cAMP Gs dynamic kit (Cisbio) according to the protocol attached to the product. Specifically, cAMP-d2 and Anti-cAMP-Cryptate are each added in an amount of 3 μL/well, the mixture is incubated at room temperature for 1 hour, and time-resolved fluorescence is measured using PHERAstar (BMG Labtech).
The dilution concentration or the dilution solvent are changed as necessary.
The compounds of the present invention were tested essentially as described above.

[1] = CHO-K1, maximum effect, cAMP increase in GLP-1 R/CHO-K1 cells, 2 nM human GLP-1 (7-36) = 100%, DMSO only = 0%, read-out: Emax
[2] = cAMP increase in GLP-1 R/CHO-K1 cells, 2 nM human GLP-1 (7-36) = 100%, DMSO only = 0%
[3] = CHO-K1, hGLP-1R/CHO-K1 cells, cAMP, 100% = human GLP-1 (7-36) at 2 nM, 0% = DMSO only, read-out: Emax(%)
[4] = hGLP-1R/CHO-K1 cells, cAMP increase, 37° C. 1 hour

T1 sequence (P43220 24-463): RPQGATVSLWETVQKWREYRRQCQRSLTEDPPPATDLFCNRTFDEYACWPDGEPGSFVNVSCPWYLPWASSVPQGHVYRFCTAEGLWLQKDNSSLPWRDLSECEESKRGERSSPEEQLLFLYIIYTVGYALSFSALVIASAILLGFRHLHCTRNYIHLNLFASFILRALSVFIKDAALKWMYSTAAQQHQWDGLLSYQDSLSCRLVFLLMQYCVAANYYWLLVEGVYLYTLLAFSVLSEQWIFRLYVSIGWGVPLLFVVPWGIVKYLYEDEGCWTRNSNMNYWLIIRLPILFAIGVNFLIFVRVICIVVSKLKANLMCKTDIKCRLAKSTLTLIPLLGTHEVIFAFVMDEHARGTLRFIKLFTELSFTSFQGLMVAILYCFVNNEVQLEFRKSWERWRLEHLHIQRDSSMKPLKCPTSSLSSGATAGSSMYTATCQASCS

Emax [1]	EC50 [2]	Emax [3]	EC50 [4]	SMILES
107%	0.0214 nM			COc1cc(Cl)ccc1COc1nc2c(cc1C(F)(F)F)CCN(Cc1nc3c(F)cc(C(=O)O)cc3n1C[C@@H]1CCO1)[C@H]2C [Compound I-367]
110%				O=C(O)c1ccc2nc(CN3CCc4cc(C(F)(F)F)c(OCc5c(F)cc(Cl)cc5F)nc4C3)n(C[C@@H]3CCO3)c2c1 [Compound I-279]
		113%	1.56 nM	O=C(O)c1cc(Cl)c2nc(CN3CCc4cc(C(F)(F)F)c(OCc5ccc(Cl)cc5F)cc4C3)n(C[C@@H]3CCO3)c2c1 [Compound I-061]
		96.3%	3.29 nM	C[C@H]1c2cc(OCc3ccc(C4CC4)cc3)c(C(F)(F)F)cc2CCN1Cc1nc2ccc(C(=O)O)c(F)c2n1C[C@@H]1CCO1 [Compound I-195]
105%	0.0656 nM			COc1cc(Cl)ccc1COc1cc2c(cc1C(F)(F)F)CCN(Cc1nc3c(OC)cc(C(=O)O)cc3n1C[C@@H]1CCO1)[C@H]2C [Compound I-229]
		103%	0.12 nM	C[C@H]1c2nc(OCc3ccc(Cl)cc3)c(C(F)(F)F)cc2CCN1Cc1nc2ccc(C(=O)O)c(F)c2n1C[C@@H]1CCO1 [Compound I-223]
108%	0.0778 nM			C[C@H]1c2nc(OCc3c(F)cc(F)cc3F)c(C(F)(F)F)cc2CCN1Cc1nc2ccc(C(=O)O)c(F)c2n1C[C@@H]1CCO1 [Compound I-361]
		117%	1.23 nM	COc1cc(Cl)ccc1COc1cc2c(cc1C(F)(F)F)CCN(Cc1nc3ccc(C(=O)O)cc3n1C[C@@H]1CCO1)C2 [Compound I-139]
110%	0.0824 nM			COc1cc(C(=O)O)cc2c1nc(CN1CCc3cc(Cl)c(OCc4ccc(Cl)cc4F)cc3[C@@H]1C)n2C[C@@H]1CCO1 [Compound I-344]
		110%	0.511 nM	Cc1ccc(COc2cc3c(cc2C(F)(F)F)CCN(Cc2nc4c(F)cc(C(=O)O)cc4n2C[C@@H]2CCO2)[C@H]3C)cc1 [Compound I-206]
		104%	0.31 nM	C[C@H]1c2cc(OCc3ccc(Cl)cn3)c(C(F)(F)F)cc2CCN1Cc1nc2c(F)cc(C(=O)O)cc2n1C[C@@H]1CCO1 [Compound I-203]
		101%	6.88 nM	O=C(O)c1ccc2nc(CN3CCc4cc(C(F)(F)F)c(OCc5ccc(F)cc5F)cc4C3)n(C[C@@H]3CCO3)c2c1 [Compound I-106]
120%	0.807 nM			C[C@H]1c2nc(OCc3ccc(C4CC4)cc3)c(C(F)(F)F)cc2CCN1Cc1nc2ccc(C(=O)O)cc2n1C[C@@H]1CCO1 [Compound I-251]
		100%	40 nM	O=C(O)c1ccc2nc(CN3CCc4cc(C(F)(F)F)c(OCc5ccc6c(c5)CCC6)cc4C3)n(C[C@@H]3CCO3)c2c1 [Compound I-074]
		67.7%	238 nM	Cn1nncc1Cn1c(CN2CCc3cc(C(F)(F)F)c(OCc4ccc(Cl)cc4F)cc3C2)nc2ccc(C(=O)O)cc21 [Compound I-050]
112%	0.628 nM			COc1cc(C(=O)O)cc2c1nc(CN1CCc3cc(C(F)(F)F)c(OCc4ccc(Cl)cc4)cc3[C@@H]1C)n2C[C@@H]1CCO1 [Compound I-226]
122%	0.178 nM			COc1cc(C(=O)O)cc2c1nc(CN1CCc3cc(C(F)(F)F)c(OCc4ccc(C)cc4)nc3C1)n2C[C@@H]1CCO1 [Compound I-387]
		93.7%	81.5 nM	COCCn1c(CN2CCc3cc(C(F)(F)F)c(OCc4ccc(Cl)cc4F)cc3C2)nc2ccc(C(=O)O)cc21 [Compound I-045]
110%	0.241 nM			Cc1ccc(COc2nc3c(cc2C(F)(F)F)CCN(Cc2nc4ccc(C(=O)O)nc4n2C[C@@H]2CCO2)[C@H]3C)cc1 [Compound I-347]
91.3%	4.55 nM			COc1ccc(COc2cc3c(cc2Cl)CCN(Cc2nc4ccc(C(=O)O)c(F)c4n2C[C@@H]2CCO2)[C@H]3C)cc1 [Compound I-318]
		111%	5.88 nM	O=C(O)c1ccc2nc(CN3CCc4cc(C(F)(F)F)c(OCc5ccccc5OC(F)F)cc4C3)n(C[C@@H]3CCO3)c2c1 [Compound I-152]
		103%	8.71 nM	O=C(O)c1cc2c(cc1F)nc(CN1CCc3cc(C(F)(F)F)c(OCc4ccc(Cl)cc4F)cc3C1)n2C[C@@H]1CCO1 [Compound I-034]

Emax [1]	EC50 [2]	Emax [3]	EC50 [4]	SMILES
		114%	3.54 nM	O=C(O)c1ccc2nc(CN3CCc4cc(C(F)(F)F)c(OCc5ncc(Cl)cc5F)cc4C3)n(C[C@@H]3CCO3)c2c1 [Compound I-068]
78.7%	109 nM			CC1c2cc(OCc3ccc(Cl)cc3F)ccc2CCN1Cc1nc2ccc(C(=O)O)cc2n1C[C@@H]1CCO1 (stereo partly drawn) [Compound I-025]
105%	0.377 nM			C[C@H]1c2cc(OCc3c(F)cc(Cl)cc3F)c(Cl)cc2CCN1Cc1nc2c(F)cc(C(=O)O)cc2n1C[C@@H]1CCO1 [Compound I-339]
		102%	40.3 nM	O=C(O)c1cc(C(F)F)c2nc(CN3CCc4cc(C(F)(F)F)c(OCc5ccc(Cl)cc5F)cc4C3)n(C[C@@H]3CCO3)c2c1 [Compound I-146]
		105%	4.2 nM	C[C@H]1c2cc(OCc3ccc(F)cc3)c(C(F)(F)F)cc2CCN1Cc1nc2ccc(C(=O)O)nc2n1C[C@@H]1CCO1 [Compound I-187]
		98.3%	11.6 nM	O=C(O)c1ccc2nc(CN3CCc4nc(C(F)(F)F)c(OCc5ccc(Cl)cc5F)cc4C3)n(C[C@@H]3CCO3)c2c1 [Compound I-062]
114%	0.421 nM			C[C@H]1c2nc(OCc3ccc(C4CC4)cc3)c(C(F)(F)F)cc2CCN1Cc1nc2c(F)cc(C(=O)O)cc2n1C[C@@H]1CCO1 [Compound I-366]
135%	0.0156 nM			COc1cc(C(=O)O)cc2c1nc(CN1CCc3cc(C(F)(F)F)c(OCc4ccc(Cl)cn4)nc3[C@@H]1C)n2C[C@@H]1CCO1 [Compound I-392]
96%	0.0121 nM			COc1cc(C(=O)O)cc2c1nc(CN1CCc3cc(C(F)(F)F)c(OCc4c(F)cc(Cl)cc4F)nc3[C@@H]1C)n2C[C@@H]1CCO1 [Compound I-379]
104%	0.348 nM			COc1cc(C(=O)O)cc2c1nc(CN1CCc3cc(C(F)(F)F)c(OCc4ccc(Cl)cn4)cc3[C@@H]1C)n2C[C@@H]1CCO1 [Compound I-225]
107%	0.949 nM			O=C(O)c1ccc2nc(CN3CCc4cc(C(F)(F)F)c(OCc5cc(F)c(Cl)cc5F)nc4C3)n(C[C@@H]3CCO3)c2n1 [Compound I-305]
		110%	0.251 nM	C[C@H]1c2nc(OCc3ccc(F)cc3Cl)c(C(F)(F)F)cc2CCN1Cc1nc2ccc(C(=O)O)cc2n1C[C@@H]1CCO1 [Compound I-220]
		126%	0.663 nM	C[C@H]1c2cc(OCc3ccc(Cl)cc3F)c(C(F)(F)F)cc2CCN1Cc1nc2ccc(C(=O)O)nc2n1C[C@@H]1CCO1 [Compound I-037]
		90.3%	1.72 nM	C[C@H]1c2cc(OCc3ccc(C4CC4)cc3)c(C(F)(F)F)cc2CCN1Cc1nc2c(F)cc(C(=O)O)cc2n1C[C@@H]1CCO1 [Compound I-207]
		106%	1.82 nM	C[C@H]1c2cc(OCc3ccc(C(F)F)cc3F)c(C(F)(F)F)cc2CCN1Cc1nc2ccc(C(=O)O)cc2n1C[C@@H]1CCO1 [Compound I-215]
		101%	3.58 nM	COc1ccc(COc2cc3c(cc2C(F)(F)F)CCN(Cc2nc4ccc(C(=O)O)nc4n2C[C@@H]2CCO2)[C@H]3C)cc1 [Compound I-175]
		98.3%	2.12 nM	C[C@H]1c2cc(OCc3ccc(Cl)cn3)c(C(F)(F)F)cc2CCN1Cc1nc2ccc(C(=O)O)nc2n1C[C@@H]1CCO1 [Compound I-176]
		75%	47.5 nM	Cc1cc2c(cc1OCc1ccc(Cl)cc1F)CN(Cc1nc3ccc(C(=O)O)cc3n1C[C@@H]1CCO1)CC2 [Compound I-001]
		102%	2.3 nM	Cc1csc(COc2cc3c(cc2C(F)(F)F)CCN(Cc2nc4ccc(C(=O)O)cc4n2C[C@@H]2CCO2)[C@H]3C)n1 [Compound I-173]
117%	1.27 nM			C[C@H]1c2nc(OCc3ccc(C4CC4)cc3)c(C(F)(F)F)cc2CCN1Cc1nc2ccc(C(=O)O)nc2n1C[C@@H]1CCO1 [Compound I-349]
		123%	1.2 nM	Cc1csc(COc2cc3c(cc2C(F)(F)F)CCN(Cc2nc4ccc(C(=O)O)c(F)c4n2C[C@@H]2CCO2)[C@H]3C)n1 [Compound I-192]
		81.3%	94.6 nM	Cc1cc2c(cc1OCc1ccc(F)cc1F)CN(Cc1nc3ccc(C(=O)O)cc3n1C[C@@H]1CCO1)CC2 [Compound I-029]
